These results are taken from paper PMC6804243, “Small-Molecule Inhibition of UBE2T/FANCL-Mediated Ubiquitylation in the Fanconi Anemia Pathway” (ACS Chemical Biology, 2019).

The test system of this assay is T1, UBE2D1.
T1 construct: His6 (N); made in house; host or cells: E. coli Rosetta (DE3)
The assay is described as follows: Gel-based ubiquitylation assay (UBE2D1/GST-FANCLRING), ubiquitylated UBE2D1 species. In kind it is biochemical. The note with it: E2 = UBE2D1, E3 = GST-FANCLRING; 30 min at 37 °C. As for the experimental part: Figure 2 Gel-based ubiquitylation assays with confirmed HTRF hits. […] Western blots (WB) probed for GST or biotin as labeled. Reactions contained 20 nM His6-UBE1, 50 nM E2, 250 nM GST-E3, 500 nM biotinylated ubiquitin: (a) E2 = UBE2T, E3 = GST-FANCLRING, 30 min of reaction at 37 °C; (b) E2 = UBE2D1, E3 = GST-FANCLRING, 30 min of reaction at 37 °C; and (c) E2 = UBE2D1, E3 = GST-RNF8, 10 min of reaction at 37 °C.
In order to explore the selectivity of CU1, CU2, CU9, CU10, and CU12, we conducted a counter-screen against other E2 and E3 combinations. Since members of the UBE2D family of E2s are known to ubiquitylate multiple substrates in vitro,[13] a ubiquitylation assay featuring UBE2D1 and GST-FANCLRING was performed. With UBE2D1, multiple ubiquitylated GST-FANCLRING species could be observed (Figure 2b).
Purified protein was concentrated using a Vivaspin-6 concentrator with a 10 kDa MW cut-off (Vivascience) and flash-frozen in small aliquots for storage at […]
Cy5 labelling of ubiquitin. […]
Homogeneous Time-Resolved Fluorescence (HTRF) Assay. […]
(v/v) DMSO. […] Signal was measured at λEx 340 nm and λEm 665 nm and 620 nm using a PHERAstar FS plate reader
(BMG Labtech). A ratio was calculated as [λEm(665)/λEm(620)] × 104 for each well and this was used to determine the percent inhibition for test compounds. […]

For the compound `NC(=O)[C@@H]1CCCN1C(=O)c1cc(-n2cccc2)ccc1Cl` [CU12], the “formation of ubiquitylated UBE2D1 species” value is reported as “prevented the formation of any ubiquitylated UBE2D1 species”.
